For data set [1], the system named is Rattus norvegicus. Briefly: In vivo inhibition of COX-2 activity in Complete Freund's adjuvant-induced arthritic albino Wistar rat serum assessed as decrease in peroxidase activity measured as TMPD oxidation rate at 10 mg/kg administered via gavage daily started from day 7 and continued till day 21 after CFA injection by colorimetric analysis. The format is functional, organism-based. Set-up: dose 10 mg/kg.

Data set [2] relates to Rattus norvegicus. Briefly: Reduction in neutrophil infiltration in Complete Freund's adjuvant-induced arthritic albino Wistar rat ankle joint at 10 mg/kg administered via gavage daily started from day 7 and continued till day 21 after CFA injection by hematoxylin-eosin staining based microscopic analysis. Format: functional, organism-based. On the set-up: dose 10 mg/kg.
The next data set concerns SW982. Briefly: Inhibition of IL-1 beta-induced LOX activity in human SW982 cells assessed as enzyme activity at LD50 treated for 24 hrs prior to incubation with IL-1 beta for 6 hrs (reference value: 100.0%). Format: cell-based. Set-up: scale not given: the % may be the effect or the level left.
Data set [3] concerns the target T1, Prostaglandin G/H synthase 2 (Homo sapiens) (UniProt P35354).
T1 sequence (whole entry): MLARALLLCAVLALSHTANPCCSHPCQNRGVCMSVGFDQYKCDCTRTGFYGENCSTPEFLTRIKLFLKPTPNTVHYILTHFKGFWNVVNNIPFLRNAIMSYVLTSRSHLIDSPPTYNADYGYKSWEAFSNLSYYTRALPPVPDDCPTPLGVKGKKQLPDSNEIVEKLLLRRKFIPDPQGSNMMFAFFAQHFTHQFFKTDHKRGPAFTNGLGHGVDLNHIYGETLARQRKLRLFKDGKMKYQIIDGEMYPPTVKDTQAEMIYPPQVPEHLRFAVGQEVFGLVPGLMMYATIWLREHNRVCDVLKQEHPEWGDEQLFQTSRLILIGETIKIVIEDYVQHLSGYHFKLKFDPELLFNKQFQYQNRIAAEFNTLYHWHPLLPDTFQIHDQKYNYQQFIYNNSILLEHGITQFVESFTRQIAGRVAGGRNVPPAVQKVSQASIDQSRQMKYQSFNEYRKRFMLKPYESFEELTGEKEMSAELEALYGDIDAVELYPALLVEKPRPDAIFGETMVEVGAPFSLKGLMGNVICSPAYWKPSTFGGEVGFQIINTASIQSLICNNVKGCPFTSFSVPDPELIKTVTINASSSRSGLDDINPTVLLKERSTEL
Nature of the data set: Inhibition of IL-1 beta-induced COX-2 activity in human SW982 cells assessed as enzyme activity at LD50 treated for 24 hrs prior to incubation with IL-1 beta for 6 hrs (reference value: 100.0%). On the set-up: scale not given: the % may be the effect or the level left. Format: cell-based.

The nature of data set [4]: Cytotoxicity against human SW982 cells after 24 hrs by MTT assay. Format: cell-based. To be noted: read-out: LD50. In general terms: Formazan colour is commonly taken as a measure of viable cells.

Structures are written as SMILES. Calls of active or inactive are those of the source. The rule behind the calls is not given here.

As for `COC(=O)[C@]1(C)[C@@H]2CC[C@]3(C)[C@H](C(=O)C=C4[C@@H]5[C@@H](C)[C@H](C)CC[C@]5(C)CC[C@]43C)[C@@]2(C)CC[C@H]1OC(=O)C(C)c1ccc2cc(OC)ccc2c1` (mixture of isomers), in the data set on Rattus norvegicus [1], the inhibition result was “Active”.

On to `C[C@H]1[C@H](C)CC[C@]2(C)CC[C@]3(C)C(=CC(=O)[C@@H]4[C@@]5(C)CC[C@@H](O)[C@](C)(C(=O)O)[C@@H]5CC[C@]43C)[C@H]12` [11-KETO BOSWELLIC ACID], for which the inhibition entry with Rattus norvegicus [2] and with Rattus norvegicus [1] was “Active” each time. The Activity in the data set on SW982 was 72.7%; in data set [3], 27.4%. In data set [4], the CC50 at 24 h is 82 µM.

For the compound `COC(=O)[C@]1(C)[C@@H]2CC[C@]3(C)[C@H](CC=C4[C@@H]5[C@@H](C)[C@H](C)CC[C@]5(C)CC[C@]43C)[C@@]2(C)CC[C@H]1OC(=O)Cc1c(C)n(C(=O)c2ccc(Cl)cc2)c2ccc(OC)cc12`, the inhibition result with Rattus norvegicus [1] was “Active”.

For the compound `COC(=O)[C@]1(C)[C@@H]2CC[C@]3(C)[C@H](C(=O)C=C4[C@@H]5[C@@H](C)[C@H](C)CC[C@]5(C)CC[C@]43C)[C@@]2(C)CC[C@H]1OC(=O)Cc1c(C)n(C(=O)c2ccc(Cl)cc2)c2ccc(OC)cc12`, the inhibition entry in the data set on Rattus norvegicus [1] was “Active”.

On to `CC(C)Cc1ccc(C(C)C(=O)O)cc1` (configuration not stated) [IBUPROFEN], for which the inhibition result in the data set with Rattus norvegicus [2] and with Rattus norvegicus [1] was “Active” each time. Also, the CC50 at 24 h in data set [4] was 93 µM.

In the case of `COC(=O)[C@]1(C)[C@@H]2CC[C@]3(C)[C@H](CC=C4[C@@H]5[C@@H](C)[C@H](C)CC[C@]5(C)CC[C@]43C)[C@@]2(C)CC[C@H]1OC(=O)C(C)c1ccc2cc(OC)ccc2c1` (mixture of isomers), the inhibition result in the data set with Rattus norvegicus [1] was “Active”.

In the case of `COC(=O)[C@]1(C)[C@@H]2CC[C@]3(C)[C@H](C(=O)C=C4[C@@H]5[C@@H](C)[C@H](C)CC[C@]5(C)CC[C@]43C)[C@@]2(C)CC[C@H]1OC(=O)Cc1ccccc1Nc1c(Cl)cccc1Cl`, in the data set with Rattus norvegicus [1], the inhibition entry was “Active”.

As for `C[C@H]1[C@H](C)CC[C@]2(C)CC[C@]3(C)C(=CC[C@@H]4[C@@]5(C)CC[C@@H](O)[C@](C)(C(=O)O)[C@@H]5CC[C@]43C)[C@H]12` [BOSWELLIC ACID], the Activity in the data set on SW982 came to 44%; in data set [3], 50.8%. The CC50 at 24 h in data set [4] worked out at 70.2 µM.

Turning to `COC(=O)[C@]1(C)[C@@H]2CC[C@]3(C)[C@H](CC=C4[C@@H]5[C@@H](C)[C@H](C)CC[C@]5(C)CC[C@]43C)[C@@]2(C)CC[C@H]1OC(=O)C(C)c1ccc(CC(C)C)cc1` (mixture of isomers), the inhibition entry in the data set with Rattus norvegicus [2] and in the data set with Rattus norvegicus [1] was “Active” throughout. The Activity in the data set with SW982 is 65.8%; in data set [3], 30.2%. Further, the CC50 at 24 h in data set [4] turned out to be 62.6 µM.

Turning to `COC(=O)[C@]1(C)[C@@H]2CC[C@]3(C)[C@H](CC=C4[C@@H]5[C@@H](C)[C@H](C)CC[C@]5(C)CC[C@]43C)[C@@]2(C)CC[C@H]1OC(=O)Cc1ccccc1Nc1c(Cl)cccc1Cl`, in the data set with Rattus norvegicus [1], the inhibition result was “Active”.

Consider `COC(=O)[C@]1(C)[C@@H]2CC[C@]3(C)[C@H](C(=O)C=C4[C@@H]5[C@@H](C)[C@H](C)CC[C@]5(C)CC[C@]43C)[C@@]2(C)CC[C@H]1OC(=O)C(C)c1ccc(CC(C)C)cc1` (mixture of isomers), for which the inhibition entry with Rattus norvegicus [2] and with Rattus norvegicus [1] was “Active” throughout. The Activity in the data set with SW982 was 60.2%; in data set [3], 27.7%. Moreover, the CC50 at 24 h in data set [4] is 40.6 µM.
